Earlier results, collected in US20060270852A1, “PREPARATION OF BISQUINOLINE COMPOUNDS” (priority 2005, published 2006).
Read-outs that look alike come from different tables or passages of the source.

Legend:
[1] = test system: falciparum and vivax malaria
[2] = not given; remark: listed apart in the source

Compound	solubility in water	efficacy compared with chloroquine ([1]; against falciparum and vivax malaria)	tolerability compared with chloroquine ([1]; in vivo)	solubility in water (at neutral and alkaline pH)	dissociation constant [pKa] [2]
Clc1ccc2c(N3CCN(CCCN4CCN(c5ccnc6cc(Cl)ccc56)CC4)CC3)ccnc2c1 [Piperaquine phosphate]	soluble in water				
Clc1ccc2c(N3CCN(CCCN4CCN(c5ccnc6cc(Cl)ccc56)CC4)CC3)ccnc2c1 [piperaquine, 1,3-Bis-[4-(7′-chloro-quinoline-4′)piperazine-1]propane]		at least as effective as	better tolerated than	only sparingly soluble in water	8.92
